The results in this text go back to the SangsterLogP compilation.

The data set is described as follows: method code SF-HPLC, from DOI: 10.1248/cpb.43.2238.

A word on the logP: it is a log measure of how a compound divides between an organic and an aqueous phase. For the molecule `c1ccsc1`, the lipophilicity (logP) worked out at 1.89. `COc1cccs1` gave a logP of 2.13. Under `CCCNC(=O)c1cccs1` stands 1.68; under `CNC(=O)c1cccs1`, 0.84; under `CCOC(=O)c1ccsc1`, 2.32. In turn, `CCCOC(=O)c1cccs1` gave a logP of 3.01. With `CCNC(=O)c1ccsc1`, the logP worked out at 1.18. For `O=[N+]([O-])c1cccs1` the value was 1.58. `CCNC(=O)c1cccs1` returned a logP of 1.18.

With `Clc1ccsc1`, the logP was determined as 2.55. Molecule `COC(=O)c1cccs1` showed a logP of 1.83.

In turn, `CCCOC(=O)c1ccsc1` registered a logP of 3.03. Consider `CNC(=O)c1ccsc1`, for which the logP stood at 0.81. Molecule `CC(=O)c1ccsc1` had a logP of 1.26.

As for `CC(=O)c1cccs1`, the logP was found to be 1.27. `N#Cc1cccs1`: the logP came out at 1.34. In turn, `CCCNC(=O)c1ccsc1` showed a log partition coefficient (logP) of 1.65.
